Source: ChEMBL document CHEMBL1201862, “PubChem BioAssay data set” (2004)
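These data come from cells grown in 96-well plates and exposed to compound for 48 hours at five concentrations. GI50 marks 50% less growth.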 Calls of active or inactive are those of the source. Cut-off read from the data, not from the text of the source: active = GI50 up to about 1.1 µM and inactive = higher.

Columns and labels:
Experiment in all cases: DTP human tumour cell line panel, 48 h
[1] = test system: EKVX
[2] = test system: SN12C
[3] = test system: HCT-116
[4] = test system: OVCAR-5
[5] = test system: COLO 205
[6] = test system: UACC-62
[7] = test system: SNB-19
[8] = test system: OVCAR-8
[9] = test system: SK-MEL-5
[10] = test system: SK-MEL-2
[11] = test system: HT-29
[12] = test system: NCI-H460
[13] = test system: NCI-H522
[14] = test system: CCRF-CEM
[15] = test system: Malme-3M
[16] = test system: A549

Measured: GI50

Cc1cc(C)c2c(c1)CSCc1cc(C)cc(C)c1-2
inactive: [1] 24.2 µM | [2] 35.2 µM | [3] 22 µM | [4] 29.9 µM | [5] 26.5 µM | [6] 23.4 µM | [7] 44.8 µM | [8] 33 µM | [9] 21.6 µM | [10] 21.3 µM | [11] 19.3 µM | [12] 24.2 µM | [13] 22.5 µM | [14] 23 µM | [15] 18.1 µM | [16] 30.9 µM

C#CC1(O)CC(c2ccccc2)N(C)C(c2ccccc2)C1 (configuration not stated)
inactive: [1] > 100 µM | [2] > 100 µM | [3] 18.4 µM | [4] > 100 µM | [5] > 100 µM | [6] > 100 µM | [7] > 100 µM | [8] > 100 µM | [9] > 100 µM | [10] > 100 µM | [11] > 100 µM | [12] > 100 µM | [13] > 100 µM | [14] > 100 µM | [15] > 100 µM | [16] > 100 µM

COc1cccc(NC(=O)/C(CS(=O)(=O)CCC(C(C)=O)C(C)=O)=N/NC(C)(C)C)c1
inactive: [1] > 100 µM | [2] > 100 µM | [3] > 100 µM | [4] > 100 µM | [5] > 100 µM | [6] > 100 µM | [7] > 100 µM | [8] > 100 µM | [9] > 100 µM | [10] > 100 µM | [11] > 100 µM | [12] > 100 µM | [13] > 100 µM | [14] > 100 µM | [15] > 100 µM | [16] > 100 µM

COc1ccc(OC)c(/C=C(/C#N)c2ccccc2)c1
inactive: [1] 30.6 µM | [2] 32.6 µM | [3] 49.3 µM | [4] 56 µM | [5] 20.5 µM | [6] 5.32 µM | [7] 52 µM | [8] 37.2 µM | [9] 13.2 µM | [10] 5.82 µM | [11] 6.52 µM | [12] 15.8 µM | [13] 14 µM | [14] 17.5 µM | [15] 35.6 µM | [16] 13.2 µM

CC(OC1CC(=O)CC2C(=O)C=CC(=O)C12)c1ccccc1 (configuration not stated)
inactive: [1] 16.2 µM | [2] 19 µM | [3] 9.75 µM | [4] 17.6 µM | [5] 16.9 µM | [6] 16.2 µM | [7] 28.4 µM | [8] 15.3 µM | [9] 18.8 µM | [10] 19.7 µM | [11] 17.7 µM | [12] > 42.9 µM | [13] 1.53 µM | [14] 2.67 µM | [15] 20.4 µM | [16] 19.1 µM

COc1cc(C2C(Cl)C(=O)N2n2cnc3ccccc3c2=O)cc(OC)c1OC (configuration not stated)
inactive: [1] 92 µM | [2] > 100 µM | [3] > 100 µM | [4] > 100 µM | [5] > 100 µM | [6] 37.9 µM | [7] > 100 µM | [8] > 100 µM | [9] > 100 µM | [10] > 100 µM | [11] > 100 µM | [12] > 100 µM | [13] > 100 µM | [14] 82 µM | [15] > 100 µM | [16] > 100 µM

Cc1ccc(S(=O)(=O)OC2CSSCC2OS(=O)(=O)c2ccc(C)cc2)cc1 (configuration not stated)
inactive: [1] 29.8 µM | [2] 11.3 µM | [3] 13.3 µM | [4] 23.4 µM | [5] 13.7 µM | [6] 7.89 µM | [7] 17.3 µM | [8] 13.3 µM | [9] 15.7 µM | [10] 15.7 µM | [11] 9.68 µM | [12] 17.7 µM | [13] 10.9 µM | [14] 4.35 µM | [15] 19.2 µM | [16] 18 µM
